# Reference: ChEMBL document CHEMBL6134848, “Deuteration Strategy-Inspired Design of Novel Diarylpyrimidine Derivatives as Potent Non-Nucleoside Reverse Transcriptase Inhibitors Featuring Improved Efficacy, Selectivity, and Druggability” (J Med Chem, 2025)
# Legend:
# [1] = tested on: Human immunodeficiency virus 1; experiment: Antiviral activity against wild-type HIV-1 IIIB infected in human MT4 cells assessed as protection against virus-induced cytopathicity measured after 5 days post-infection by MTT assay; type: functional, organism-based; details: Human immunodeficiency virus 1, IIIB, MT4, 120 h
# [2] = Cytotoxicity against human MT4 cells assessed as reduction in cell viability by MTT assay; type: toxicity, cell-based
# [3] = Metabolic stability in human liver microsomes assessed as half life at 1 uM measured up to 45 mins by LC/MS/MS analysis; type: ADME, Microsome; details: for half-life at 1 µM: liver microsomes
# [4] = tested on: Human immunodeficiency virus 1; experiment: Antiviral activity against drug-resistant HIV-1 harboring RT L100I mutant infected in human MT4 cells assessed as protection against virus-induced cytopathicity measured after 5 days post-infection by MTT assay; type: functional, organism-based; details: Human immunodeficiency virus 1, MT4, 120 h
# [5] = tested on: Human immunodeficiency virus 1; experiment: Antiviral activity against drug-resistant HIV-1 harboring RT K103N mutant infected in human MT4 cells assessed as protection against virus-induced cytopathicity measured after 5 days post-infection by MTT assay; type: functional, organism-based; details: Human immunodeficiency virus 1, MT4, 120 h
# [6] = tested on: Human immunodeficiency virus 1; experiment: Antiviral activity against drug-resistant HIV-1 harboring RT Y181C mutant infected in human MT4 cells assessed as protection against virus-induced cytopathicity measured after 5 days post-infection by MTT assay; type: functional, organism-based; details: Human immunodeficiency virus 1, MT4, 120 h
# [7] = tested on: Human immunodeficiency virus 1; experiment: Antiviral activity against drug-resistant HIV-1 harboring RT Y188L mutant infected in human MT4 cells assessed as protection against virus-induced cytopathicity measured after 5 days post-infection by MTT assay; type: functional, organism-based; details: Human immunodeficiency virus 1, MT4, 120 h
# [8] = tested on: Human immunodeficiency virus 1; experiment: Antiviral activity against drug-resistant HIV-1 harboring RT E138K mutant infected in human MT4 cells assessed as protection against virus-induced cytopathicity measured after 5 days post-infection by MTT assay; type: functional, organism-based; details: Human immunodeficiency virus 1, MT4, 120 h
# [9] = tested on: Human immunodeficiency virus 1; experiment: Antiviral activity against drug-resistant HIV-1 harboring RT F227L/V106A mutant infected in human MT4 cells assessed as protection against virus-induced cytopathicity measured after 5 days post-infection by MTT assay; type: functional, organism-based; details: Human immunodeficiency virus 1, MT4, 120 h
# [10] = tested on: Human immunodeficiency virus 1; experiment: Antiviral activity against drug-resistant HIV-1 harboring RT RES056 mutant infected in human MT4 cells assessed as protection against virus-induced cytopathicity measured after 5 days post-infection by MTT assay; type: functional, organism-based; details: Human immunodeficiency virus 1, MT4, 120 h
# [11] = target: Human immunodeficiency virus type 1 reverse transcriptase (Human immunodeficiency virus 1, UniProt Q72547); experiment: Inhibition of recombinant wild type HIV-1 reverse transcriptase incubated for 40 mins in presence of poly(rA) template/oligo(dT)16 primer by Pico-Green dye based analysis
# [12] = Selectivity index, ratio of CC50 for cytotoxicity against human MT4 cells to EC50 for antiviral activity against wild-type HIV-1 IIIB infected in human MT4 cells; type: toxicity, cell-based; details: read-out: Ratio CC50/EC50
# [13] = Solubility of compound at pH 7; type: physicochemical; details: buffer
# [14] = Stability in human plasma assessed as compound remaining at 1 uM measured immediately by LC-MS/MS analysis; type: ADME, cell-free; details: read-out: Stability
# [15] = Stability in human plasma assessed as compound remaining at 1 uM measured after 3 hrs by LC-MS/MS analysis; type: ADME, cell-free; details: read-out: Stability
# [16] = Metabolic stability in rat liver microsomes assessed as half life at 1 uM measured up to 45 mins by LC/MS/MS analysis; type: ADME, Microsome; details: 0.75 h
# [17] = Metabolic stability in dog liver microsomes assessed as half life at 1 uM measured up to 45 mins by LC/MS/MS analysis; type: ADME, Canis lupus familiaris, Microsome; details: liver microsomes
# [18] = Drug metabolism in human liver microsomes assessed as metabolic fraction at 1 uM measured up to 45 mins by LC/MS/MS analysis; type: ADME, Microsome; details: liver microsomes, read-out: Fm
# [19] = Drug metabolism in rat liver microsomes assessed as metabolic fraction at 1 uM measured up to 45 mins by LC/MS/MS analysis; type: ADME, Microsome; details: 0.75 h
# [20] = Drug metabolism in dog liver microsomes assessed as metabolic fraction at 1 uM measured up to 45 mins by LC/MS/MS analysis; type: ADME, Canis lupus familiaris, Microsome; details: liver microsomes, read-out: Fm
# [21] = Protein binding in human plasma assessed as drug recovery rate at 1 uM incubated for 6 hrs; type: ADME, cell-free; details: read-out: Drug recovery
SMILES,EC50 [1],CC50 [2],half-life at 1 µM [3],EC50 [4],EC50 [5],EC50 [6],EC50 [7],EC50 [8],EC50 [9],EC50 [10],IC50 [11],selectivity ratio [12],also measured
[2H]C([2H])([2H])c1cc(/C=C/C#N)cc(C)c1Nc1ccnc(Nc2ccc(C#N)cc2)n1,1.17 nM,6560 nM,19.4 min,2.3 nM,1.96 nM,2.71 nM,72.6 nM,4.6 nM,69.8 nM,12.9 nM,30 nM,,
[2H]C([2H])([2H])c1cc(C#N)cc(C)c1Oc1nc(NC2CCN(Cc3ccc(S(N)(=O)=O)cc3)CC2)nc2scnc12,2.8 nM,14900 nM,,10.9 nM,4.39 nM,10.1 nM,45.5 nM,28.1 nM,181 nM,57.6 nM,150 nM,5320,
[2H]C([2H])([2H])c1cc(-c2ccc(C#N)cc2)cc(C)c1Nc1ccnc(Nc2ccc(C#N)cc2)n1,2.5 nM,5940 nM,16.6 min,2.74 nM,3.81 nM,6.14 nM,57.5 nM,8.64 nM,626 nM,58.6 nM,380 nM,2370,
[2H]C([2H])([2H])c1cc(-c2ccc(C#N)cc2)cc(C([2H])([2H])[2H])c1Nc1ccnc(Nc2ccc(C#N)cc2)n1,1.83 nM,5980 nM,16.7 min,2.72 nM,2.9 nM,7.57 nM,55.1 nM,8.93 nM,697 nM,68.8 nM,380 nM,3260,
[2H]C([2H])([2H])c1cc(C#N)cc(C)c1Oc1nc(NC2CCN(Cc3ccc(C(N)=O)cc3)CC2)nc2ccccc12,5.4 nM,150000 nM,,14.5 nM,4.86 nM,47 nM,67.8 nM,63.1 nM,1270 nM,1810 nM,210 nM,27900,
[2H]C([2H])([2H])c1cc(/C=C/C#N)cc(C([2H])([2H])[2H])c1Nc1ccnc(Nc2ccc(C#N)cc2)n1,1.41 nM,6590 nM,22.8 min,2.42 nM,1.81 nM,2.75 nM,,5.84 nM,76.2 nM,13.2 nM,20 nM,,
[2H]C([2H])([2H])c1cc(C#N)cc(C)c1Oc1nc(NC2CCN(Cc3ccc(C(N)=O)cc3)CC2)nc2scnc12,2.03 nM,22000 nM,,13.3 nM,4.31 nM,10.4 nM,52.9 nM,10.4 nM,103 nM,143 nM,170 nM,10800,
[2H]C([2H])([2H])c1cc(C#N)cc(C([2H])([2H])[2H])c1Oc1nc(NC2CCN(Cc3ccc(S(N)(=O)=O)cc3)CC2)nc2ccccc12,5.47 nM,24300 nM,,16.8 nM,8.7 nM,50.7 nM,150 nM,37.4 nM,59.8 nM,276 nM,230 nM,4440,
[2H]C([2H])([2H])c1cc(C#N)cc(C([2H])([2H])[2H])c1Oc1nc(NC2CCN(Cc3ccc(C(N)=O)cc3)CC2)nc2scnc12,2.36 nM,21500 nM,,12.8 nM,2.79 nM,11.6 nM,52.1 nM,11.3 nM,161 nM,166 nM,160 nM,9130,
[2H]C([2H])([2H])c1cc(C#N)cc(C([2H])([2H])[2H])c1Oc1nc(NC2CCN(Cc3ccc(C(N)=O)cc3)CC2)nc2ccccc12,7.31 nM,90200 nM,,32.9 nM,23.6 nM,61.8 nM,60.7 nM,38.1 nM,186 nM,1390 nM,210 nM,12300,
[2H]C([2H])([2H])c1cc(C#N)cc(C)c1Oc1nc(NC2CCN(Cc3ccc(S(N)(=O)=O)cc3)CC2)nc2ccccc12,3.07 nM,> 229000 nM,,8.11 nM,6.92 nM,12.9 nM,54.2 nM,10.6 nM,44.3 nM,245 nM,210 nM,> 74600,
Cc1cc(C#N)cc(C)c1Oc1nc(Nc2ccc(C#N)cc2)nc(N)c1Br [ETRAVIRINE],,> 4600 nM,,4.22 nM,,,,10.3 nM,,36.5 nM,,,solubility [13]: < 1 µg/mL
CC[C@H](C)C(=O)O[C@H]1C[C@@H](C)C=C2C=C[C@H](C)[C@H](CC[C@@H]3C[C@@H](O)CC(=O)O3)[C@H]21 [LOVASTATIN],,,,,,,,,,,,,"remaining at 0 h, 1 µM [14]: 100%; remaining at 3 h, 1 µM [15]: 33.3%"
Cc1cc(/C=C/C#N)cc(C)c1Nc1ccnc(Nc2ccc(C#N)cc2)n1 [RILPIVIRINE],1.27 nM,6800 nM,16 min,2.05 nM,0.89 nM,2.66 nM,54 nM,3.14 nM,50.8 nM,12.4 nM,20 nM,,"t1/2 ([3]; microsomes, 0.75 h, 1 µM): 16 min; t1/2 [16]: 7.3 min; half-life at 1 µM [17]: 79.3 min; metabolised at 0.75 h, 1 µM [18]: 13%; Fm [19]: 13.3%; metabolised at 0.75 h, 1 µM [20]: 44.8%"
CC(=O)CC(c1ccccc1)c1c(O)c2ccccc2oc1=O (configuration not stated) [WARFARIN],,,,,,,,,,,,,"recovery at 6 h, 1 µM [21]: 96.9%"
